ChEMBL document CHEMBL1125955, “Synthesis of new disoxaril analogues with potent and selective anti-human rhinovirus 14 activity” (1991)
Converted amounts (≈) assume the structure as drawn.

Key:
[1] = test system: Vero; assay: Maximum testable level was evaluated in Vero cells that causes no apparent effects on cell monolayers.; format: functional, Chlorocebus sabaeus
[2] = test system: Vero; assay: Minimum inhibitory concentration (antiviral activity) was screened in Vero cells against herpes simplex virus type 1 (HSV-1); format: functional; conditions: Chlorocebus sabaeus
[3] = test system: HeLa; assay: Maximum testable level (antiviral activity) was evaluated in HeLa cells against human rhino virus; format: functional
[4] = test system: HeLa; assay: Minimum inhibitory concentration (antiviral activity) was evaluated n HeLa cells against human rhino virus; format: functional
[5] = test system: Vero; assay: Minimum inhibitory concentration (antiviral activity) was screened in Vero cells against polio type 1 (Sabin strain, Sb-1); format: functional; conditions: Chlorocebus sabaeus
[6] = test system: Vero; assay: Minimum inhibitory concentration (antiviral activity) was screened in Vero cells against Coxsackie B1 (Coxs); format: functional; conditions: Chlorocebus sabaeus
[7] = Selectivity index was the ratio of maximum testable level to that of minimum inhibitory concentration in human rhino virus; format: functional
[8] = Selectivity index was determined as ratio of maximum testable level to that of minimum inhibitory concentration; format: functional
[9] = test system: Vero; assay: Minimum inhibitory concentration (antiviral activity) was screened in Vero cells against Vesicular Stomatitis virus (VSV); format: functional; conditions: Chlorocebus sabaeus
[10] = test system: Vero; assay: Minimum inhibitory concentration (antiviral activity) was screened in Vero cells against vaccinia virus (VV); format: functional; conditions: Chlorocebus sabaeus

Structure (SMILES)	MTL [1]	MIC [2]	MTL [3]	MIC [4]	MIC [5]	MIC [6]	Selectivity index [7]	Selectivity index [8]	MIC [9]	MIC [10]
O=C(O)c1ccc(OCCCCCc2ccc(Cl)s2)cc1	60 µM	> 60 µM	20 µM	> 20 µM	20 µM (≈ 6.5 µg/mL)	> 60 µM				
CCOC(=O)c1ccc(OCCCCC(=O)c2cc(C=O)n(C)c2)cc1	55 µM	> 55 µM	>20 µM	1.4 µM (≈ 0.5 µg/mL)	5 µM (≈ 1.79 µg/mL)					
Cc1cc(CCCCCCCOc2ccc(C3=NCCO3)cc2)on1 [DISOXARIL]			>18 µM	0.4 µM (≈ 0.137 µg/mL)			45			
O=C(CCCCOc1ccc(C2=NCCO2)cc1)c1ccc(Cl)s1	>275 µM	> 275 µM	>550 µM	0.1 µM (≈ 0.0364 µg/mL)	200 µM (≈ 72.8 µg/mL)	> 275 µM		> 5500		
Cn1cc(C(=O)CCCCOc2ccc(C(=O)O)cc2)cc1C=O	380 µM	> 380 µM	>610 µM	> 50 µM	380 µM (≈ 125 µg/mL)	> 380 µM				
O=C(CCCCOc1ccc(C2=NCCO2)cc1)c1ccc[nH]1	>175 µM	> 175 µM	>640 µM	7.5 µM (≈ 2.34 µg/mL)	60 µM (≈ 18.7 µg/mL)	> 175 µM				
CCOC(=O)c1ccc(OCCCCC(=O)c2ccc(Cl)s2)cc1	>190 µM	> 190 µM	>545 µM	0.4 µM (≈ 0.147 µg/mL)	80 µM (≈ 29.3 µg/mL)	> 190 µM	>1362			
CCOC(=O)c1ccc(OCCCCC(=O)c2ccc(C)o2)cc1	>120 µM	75 µM (≈ 24.8 µg/mL)	65 µM	2.4 µM (≈ 0.793 µg/mL)	15 µM (≈ 4.96 µg/mL)	60 µM (≈ 19.8 µg/mL)			> 120 µM	30 µM (≈ 9.91 µg/mL)
Cn1cccc1C(=O)CCCCOc1ccc(C2=NCCO2)cc1	>300 µM	> 300 µM	>610 µM	1.5 µM (≈ 0.49 µg/mL)	300 µM (≈ 97.9 µg/mL)	> 300 µM		> 406		
O=C(O)c1ccc(OCCCCC(=O)c2ccc(Cl)s2)cc1	>170 µM	> 170 µM	>590 µM	> 50 µM	30 µM (≈ 10.2 µg/mL)	> 170 µM				
Clc1ccc(CCCCCOc2ccc(C3=NCCO3)cc2)s1	30 µM	> 30 µM	>60 µM	2.8 µM (≈ 0.98 µg/mL)	25 µM (≈ 8.75 µg/mL)	> 30 µM				
Cn1cc(C(=O)CCCCOc2ccc(C3=NCCO3)cc2)cc1C=O	>280 µM	> 280 µM	>565 µM	20 µM (≈ 7.09 µg/mL)		> 280 µM				
